Results: BindingDB's records for doi:10.1016/j.bmcl.2009.04.040 (The University of Texas Southwestern Medical Center At …, 2009)

What follows are compounds tested against Proto-oncogene Wnt-3 (Homo sapiens, UniProt P56703) (assay: Inhibition of Wnt3 expressed in mouse L-cells assessed as inhibition of Wnt/catanin signaling pathway by luciferase reporter gene assay).
Chain of Proto-oncogene Wnt-3 (P56703 whole entry): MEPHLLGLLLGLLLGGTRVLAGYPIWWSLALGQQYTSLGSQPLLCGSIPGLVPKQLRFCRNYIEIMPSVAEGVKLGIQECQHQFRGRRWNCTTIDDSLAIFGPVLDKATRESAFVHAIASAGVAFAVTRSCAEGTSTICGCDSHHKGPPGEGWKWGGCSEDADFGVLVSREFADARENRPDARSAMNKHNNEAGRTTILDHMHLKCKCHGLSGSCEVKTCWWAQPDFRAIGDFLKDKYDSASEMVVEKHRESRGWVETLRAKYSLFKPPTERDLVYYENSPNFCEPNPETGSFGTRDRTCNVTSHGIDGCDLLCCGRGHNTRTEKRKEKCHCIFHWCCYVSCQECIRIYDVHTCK

| EC50 | Compound |
| --- | --- |
| > 25 µM | O=C(Nc1ccc(C(F)(F)F)cc1)c1ccc(-n2c(O)c3c(c2O)[C@H]2C=C[C@@H]3C2)cc1 [4-((1R,2S,6R,7S)-3,5-Dioxo-4-aza-tricyclo[5.2.1.0*2,6*]dec-8-en-4-yl)-N-(4-trifluoromethyl-phenyl)-benzamide] |
| 10 µM | O=C(NC1CCCc2cccnc21)c1ccc(-n2c(O)c3c(c2O)[C@H]2C=C[C@@H]3C2)cc1 (stereo partly drawn) [4-((1R,2S,6R,7S)-3,5-Dioxo-4-aza-tricyclo[5.2.1.0*2,6*]dec-8-en-4-yl)-N-(5,6,7,8-tetrahydro-quinolin-8-yl)-benzamide] |
| 0.8 µM | Cc1ccc2cccnc2c1NC(=O)c1ccc(-n2c(O)c3c(c2O)[C@H]2C=C[C@@H]3C2)cc1 [4-((1R,2S,6R,7S)-3,5-Dioxo-4-aza-tricyclo[5.2.1.0*2,6*]dec-8-en-4-yl)-N-(7-methyl-quinolin-8-yl)-benzamide] |
| > 25 µM | CN(C(=O)c1ccc(-n2c(O)c3c(c2O)[C@H]2C=C[C@@H]3C2)cc1)c1cccc2cccnc12 [4-((1R,2S,6R,7S)-3,5-Dioxo-4-aza-tricyclo[5.2.1.0*2,6*]dec-8-en-4-yl)-N-methyl-N-quinolin-8-yl-benzamide] |
| > 25 µM | O=C(NCc1ccccn1)c1ccc(-n2c(O)c3c(c2O)[C@H]2C=C[C@@H]3C2)cc1 [4-((1R,2S,6R,7S)-3,5-Dioxo-4-aza-tricyclo[5.2.1.0*2,6*]dec-8-en-4-yl)-N-pyridin-2-ylmethyl-benzamide] |
| > 25 µM | O=C(NCc1cccnc1)c1ccc(-n2c(O)c3c(c2O)[C@H]2C=C[C@@H]3C2)cc1 [4-((1R,2S,6R,7S)-3,5-Dioxo-4-aza-tricyclo[5.2.1.0*2,6*]dec-8-en-4-yl)-N-pyridin-3-ylmethyl-benzamide] |
| 10 µM | O=C(NCc1ccncc1)c1ccc(-n2c(O)c3c(c2O)[C@H]2C=C[C@@H]3C2)cc1 [4-((1R,2S,6R,7S)-3,5-Dioxo-4-aza-tricyclo[5.2.1.0*2,6*]dec-8-en-4-yl)-N-pyridin-4-ylmethyl-benzamide] |
| 0.4 µM | O=C1[C@@H]2[C@H](C(=O)N1[C@H]1CC[C@H](C(=O)Nc3cccc4cccnc34)CC1)[C@@H]1C=C[C@H]2C1 [4-((1R,2S,6R,7S)-3,5-Dioxo-4-aza-tricyclo[5.2.1.0*2,6*]dec-8-en-4-yl)-cyclohexanecarboxylic acid quinolin-8-ylamide] |
| 1 µM | Cc1ccnc2c(NC(=O)[C@H]3CC[C@H](N4C(=O)[C@@H]5[C@H](C4=O)[C@@H]4C=C[C@H]5C4)CC3)cccc12 [4-((1R,2S,6R,7S)-3,5-Dioxo-4-aza-tricyclo[5.2.1.0*2,6*]dec-8-en-4-yl)-cyclohexanecarboxylic acid(4-methyl-quinolin-8-yl)-amide] |
| 1 µM | Cc1ccc2cccnc2c1NC(=O)[C@H]1CC[C@H](N2C(=O)[C@@H]3[C@H](C2=O)[C@@H]2C=C[C@H]3C2)CC1 [4-((1R,2S,6R,7S)-3,5-Dioxo-4-aza-tricyclo[5.2.1.0*2,6*]dec-8-en-4-yl)-cyclohexanecarboxylic acid(7-methyl-quinolin-8-yl)-amide] |
| 10 µM | O=C(Nc1cccc2cccnc12)N1CCC(N2C(=O)[C@@H]3[C@H](C2=O)[C@@H]2C=C[C@H]3C2)CC1 [4-((1R,2S,6R,7S)-3,5-Dioxo-4-aza-tricyclo[5.2.1.0*2,6*]dec-8-en-4-yl)-piperidine-1-carboxylic acid quinolin-8-ylamide] |
| > 25 µM | O=C1[C@@H]2[C@H](C(=O)N1C[C@H]1CC[C@H](C(=O)Nc3cccc4cccnc34)CC1)[C@@H]1C=C[C@H]2C1 [4-((1R,2S,6R,7S)-3,5-Dioxo-4-aza-tricyclo[5.2.1.0*2,6*]dec-8-en-4-ylmethyl)-cyclohexanecarboxylic acid quinolin-8-ylamide] |
| > 25 µM | Cc1ccnc2c(NC(=O)[C@H]3CC[C@H](CN4C(=O)[C@@H]5[C@H](C4=O)[C@@H]4C=C[C@H]5C4)CC3)cccc12 [4-((1R,2S,6R,7S)-3,5-Dioxo-4-aza-tricyclo[5.2.1.0*2,6*]dec-8-en-4-ylmethyl)-cyclohexanecarboxylic acid(4-methyl-quinolin-8-yl)-amide] |
| 10 µM | Cc1ccc2cccnc2c1NC(=O)[C@H]1CC[C@H](CN2C(=O)[C@@H]3[C@H](C2=O)[C@@H]2C=C[C@H]3C2)CC1 [4-((1R,2S,6R,7S)-3,5-Dioxo-4-aza-tricyclo[5.2.1.0*2,6*]dec-8-en-4-ylmethyl)-cyclohexanecarboxylic acid(7-methyl-quinolin-8-yl)-amide] |
| > 25 µM | O=C(Nc1cccc(F)c1F)c1ccc(-n2c(O)c3c(c2O)[C@H]2C=C[C@@H]3C2)cc1 [N-(2,3-Difluoro-phenyl)-4-((1R,2S,6R,7S)-dioxo-4-aza-tricyclo[5.2.1.0*2,6*]dec-8-en-4-yl)-benzamide] |
| > 25 µM | O=C(Nc1ccc(Br)cc1Br)c1ccc(-n2c(O)c3c(c2O)[C@H]2C=C[C@@H]3C2)cc1 [N-(2,4-Dibromo-phenyl)-4-((1R,2S,6R,7S)-dioxo-4-aza-tricyclo[5.2.1.0*2,6*]dec-8-en-4-yl)-benzamide] |
| 10 µM | O=C(Nc1ccc(Cl)cc1Cl)c1ccc(-n2c(O)c3c(c2O)[C@H]2C=C[C@@H]3C2)cc1 [N-(2,4-Dichloro-phenyl)-4-((1R,2S,6R,7S)-dioxo-4-aza-tricyclo[5.2.1.0*2,6*]dec-8-en-4-yl)-benzamide] |

| EC50 | Compound |
| --- | --- |
| 9 µM | O=C(Nc1ccc(F)cc1F)c1ccc(-n2c(O)c3c(c2O)[C@H]2C=C[C@@H]3C2)cc1 [N-(2,4-Difluoro-phenyl)-4-((1R,2S,6R,7S)-dioxo-4-aza-tricyclo[5.2.1.0*2,6*]dec-8-en-4-yl)-benzamide] |
| > 25 µM | O=C(Nc1cc(F)ccc1F)c1ccc(-n2c(O)c3c(c2O)[C@H]2C=C[C@@H]3C2)cc1 [N-(2,5-Difluoro-phenyl)-4-((1R,2S,6R,7S)-dioxo-4-aza-tricyclo[5.2.1.0*2,6*]dec-8-en-4-yl)-benzamide] |
| > 25 µM | O=C(Nc1c(F)cccc1F)c1ccc(-n2c(O)c3c(c2O)[C@H]2C=C[C@@H]3C2)cc1 [N-(2,6-Difluoro-phenyl)-4-((1R,2S,6R,7S)-dioxo-4-aza-tricyclo[5.2.1.0*2,6*]dec-8-en-4-yl)-benzamide] |
| > 25 µM | O=C(Nc1ccccc1Br)c1ccc(-n2c(O)c3c(c2O)[C@H]2C=C[C@@H]3C2)cc1 [N-(2-Bromo-phenyl)-4-((1R,2S,6R,7S)-3,5-dioxo-4-aza-tricyclo[5.2.1.0*2,6*]dec-8-en-4-yl)-benzamide] |
| > 25 µM | O=C(Nc1ccccc1Cl)c1ccc(-n2c(O)c3c(c2O)[C@H]2C=C[C@@H]3C2)cc1 [N-(2-Chloro-phenyl)-4-((1R,2S,6R,7S)-3,5-dioxo-4-aza-tricyclo[5.2.1.0*2,6*]dec-8-en-4-yl)-benzamide] |
| 10 µM | O=C(Nc1ccc(Br)c(Br)c1)c1ccc(-n2c(O)c3c(c2O)[C@H]2C=C[C@@H]3C2)cc1 [N-(3,4-Dibromo-phenyl)-4-((1R,2S,6R,7S)-dioxo-4-aza-tricyclo[5.2.1.0*2,6*]dec-8-en-4-yl)-benzamide] |
| 5 µM | O=C(Nc1ccc(Cl)c(Cl)c1)c1ccc(-n2c(O)c3c(c2O)[C@H]2C=C[C@@H]3C2)cc1 [N-(3,4-Dichloro-phenyl)-4-((1R,2S,6R,7S)-dioxo-4-aza-tricyclo[5.2.1.0*2,6*]dec-8-en-4-yl)-benzamide] |
| 3 µM | O=C(Nc1ccc(F)c(F)c1)c1ccc(-n2c(O)c3c(c2O)[C@H]2C=C[C@@H]3C2)cc1 [N-(3,4-Difluoro-phenyl)-4-((1R,2S,6R,7S)-dioxo-4-aza-tricyclo[5.2.1.0*2,6*]dec-8-en-4-yl)-benzamide] |
| > 25 µM | O=C(Nc1cc(F)cc(F)c1)c1ccc(-n2c(O)c3c(c2O)[C@H]2C=C[C@@H]3C2)cc1 [N-(3,5-Difluoro-phenyl)-4-((1R,2S,6R,7S)-dioxo-4-aza-tricyclo[5.2.1.0*2,6*]dec-8-en-4-yl)-benzamide] |
| 9 µM | O=C(Nc1cccc(Br)c1)c1ccc(-n2c(O)c3c(c2O)[C@H]2C=C[C@@H]3C2)cc1 [N-(3-Bromo-phenyl)-4-((1R,2S,6R,7S)-3,5-dioxo-4-aza-tricyclo[5.2.1.0*2,6*]dec-8-en-4-yl)-benzamide] |
| > 25 µM | O=C(Nc1cccc(Cl)c1)c1ccc(-n2c(O)c3c(c2O)[C@H]2C=C[C@@H]3C2)cc1 [N-(3-Chloro-phenyl)-4-((1R,2S,6R,7S)-3,5-dioxo-4-aza-tricyclo[5.2.1.0*2,6*]dec-8-en-4-yl)-benzamide] |
| 1 µM | O=C(Nc1ccc(Br)cc1)c1ccc(-n2c(O)c3c(c2O)[C@H]2C=C[C@@H]3C2)cc1 [N-(4-Bromo-phenyl)-4-((1R,2S,6R,7S)-3,5-dioxo-4-aza-tricyclo[5.2.1.0*2,6*]dec-8-en-4-yl)-benzamide] |
| 3 µM | O=C(Nc1ccc(Cl)cc1)c1ccc(-n2c(O)c3c(c2O)[C@H]2C=C[C@@H]3C2)cc1 [N-(4-Chloro-phenyl)-4-((1R,2S,6R,7S)-3,5-dioxo-4-aza-tricyclo[5.2.1.0*2,6*]dec-8-en-4-yl)-benzamide] |
| 20 µM | O=C(NCc1ccccc1)c1ccc(-n2c(O)c3c(c2O)[C@H]2C=C[C@@H]3C2)cc1 [N-Benzyl-4-((1R,2S,6R,7S)-3,5-dioxo-4-aza-tricyclo[5.2.1.0*2,6*]dec-8-en-4-yl)-benzamide] |
| > 25 µM | O=C(NC1CCCCC1)c1ccc(-n2c(O)c3c(c2O)[C@H]2C=C[C@@H]3C2)cc1 [N-Cyclohexyl-4-((1R,2S,6R,7S)-3,5-dioxo-4-aza-tricyclo[5.2.1.0*2,6*]dec-8-en-4-yl)-benzamide] |
| 2 µM | CO[C@@H]1CCCC[C@H]1NC(=O)c1ccc(-n2c(O)c3c(c2O)[C@H]2C=C[C@@H]3C2)cc1 [trans-4-((1R,2S,6R,7S)-3,5-Dioxo-4-aza-tricyclo[5.2.1.0*2,6*]dec-8-en-4-yl)-N-(2-methoxy-cyclohexyl)-benzamide] |
| > 25 µM | O=C(N[C@H]1CCCC[C@@H]1O)c1ccc(-n2c(O)c3c(c2O)[C@H]2C=C[C@@H]3C2)cc1 [trans-4-((1R,2S,6R,7S)-3,5-Dioxo-4-aza-tricyclo[5.2.1.0*2,6*]dec-8-en-4-yl)-N-((2-hydroxy-cyclohexyl)-benzamide] |
